Drawing on PubChem BioAssay (NCI), this text covers GI50 and TGI for 13 molecules.

Structures are written as SMILES. Where “and” joins values, the source holds several entries; their conditions need not be identical. Identical values can stand only once.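 Growth conditions: 96-well plates. Treatment: test compound, 48 hours, 5 concentrations. Analysis: linear interpolation between bracketing concentrations; unreached endpoints set to highest concentration. GI50 is the concentration that inhibits growth by half. The concentration for full growth arrest is given as TGI.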

Assay in all cases: NCI anticancer screen, dose series, 48 h
For assay [1], the system named is BT-549 breast.
Assay [2] relates to MDA-MB-231 breast.
Assay [3] concerns U251 CNS.
The subject of assay [4] is MCF7 breast.
In assay [5] the test system is SR leukemia.
In assay [6] the test system is UO-31 renal.
In assay [7] the test system is SK-MEL-5 melanoma.
Assay [8] concerns MOLT-4 leukemia.
Assay [9] deals with CAKI-1 renal.
Assay [10] concerns CCRF-CEM leukemia.

Consider `O=C(Nc1n[nH]c2cc(-c3ccccc3)ccc12)C1CC1`, for which the GI50 in [1] was 15.5 µM; in assay [2] it was 14.7 µM; in [3], 13.6 µM; in assay [4], 3.95 µM; in [5], 3.31 µM; in [6], 16.9 µM. For the same molecule, the GI50 in assay [7] was 8.75 µM; in assay [8] it was > 16.6 µM; in assay [9], 9.36 µM; in assay [10] it was 8.59 µM. In addition, the TGI in [1], in assay [2], in [3], in assay [4], in [5] and in assay [6] was > 25 µM each time. Further, the TGI in [7], in [8], in assay [9] and in assay [10] was > 25 µM in each case.

With `O=C1c2cccnc2-c2nc(-c3ccc(Cl)cc3)cc3c2c1nc1ccccc13`, the GI50 in [1] is 18 µM; in [2], 44.1 µM; in [3], 9.24 µM; in assay [4] it was 18.8 µM; in assay [5], 7.38 µM; in assay [6], 46.9 µM. For the same molecule, the GI50 in assay [7] was 17.5 µM; in [8] it was 51.7 µM; in assay [9], 67.7 µM; in assay [10] it was > 100 µM. Moreover, the TGI is 51.1 µM in assay [1]; > 100 µM in [2]; 37.1 µM in assay [3]; 75.4 µM in assay [4]; > 100 µM in assay [5]; > 100 µM in [6]. Also, the TGI in assay [7] is 80.8 µM; in assay [8], > 100 µM; in assay [9] it was > 100 µM; in assay [10] it was > 100 µM.

Regarding `CCc1nc(N)nc(N)c1-c1ccc(NC)c([N+](=O)[O-])c1`, the TGI in assay [1] was > 100 µM; in [2], > 100 µM; in [3], > 100 µM; in assay [4] it was > 87.3 µM; in [5], > 29.4 µM; in [6], > 100 µM. Also, the TGI in assay [7] was 29.1 µM; in assay [8], > 68.2 µM; in assay [9], > 79 µM; in [10] it was > 41.8 µM.

Consider `N#Cc1cc(-c2cc3ccccc3o2)oc1N`, for which the GI50 in assay [1] is 3.58 µM; in assay [2], 1.89 µM; in [3], 3.15 µM; in [4] it was 2.66 µM; in [5] it was 0.764 µM; in assay [6] it was 3.72 µM. Further, the GI50 in [7] was 1.52 µM; in assay [8] it was 1.94 µM; in assay [9], 1.65 µM; in assay [10], 3.72 µM. The TGI in assay [1] worked out at 14 µM; in assay [2], 4.76 µM; in assay [3], 14.7 µM; in assay [4], 15.3 µM; in [5], 3.1 µM; in [6], 18.2 µM. Besides, the TGI in assay [7] turned out to be 3.78 µM; in assay [8], 6.64 µM; in assay [9], 5.48 µM; in [10] it was 21.2 µM.

For `OCC1OC(n2cnc3c2NC=NC[C@H]3O)C(Cl)C1O` (some centres not stated), the TGI in assay [1], in [2], in [3], in assay [4], in [5] and in assay [6] was > 100 µM throughout. For the same molecule, the TGI in [7], in assay [8], in assay [9] and in assay [10] was > 100 µM in each case.

For the molecule `CC1=CC(=O)C=CC1=O`, the GI50 in assay [1] is 16.2 µM and 14.9 µM; in assay [2], 16.2 µM; in assay [3] it was 57.4 µM and 15.4 µM; in [4] it was 14.7 µM and 15.4 µM; in [5], 1.63 µM and 9.34 µM; in assay [6], 12.7 µM and 4.8 µM. In addition, the GI50 in assay [7] is 29.3 µM and 13.4 µM; in [8], 3.29 µM and 3.22 µM; in [9] it was 15.1 µM and 15.3 µM; in [10], 2.73 µM. The TGI is 40 µM and 28.3 µM in assay [1]; 30.4 µM in assay [2]; 28.9 µM in assay [3]; 34.5 µM and 41.4 µM in assay [4]; 26 µM and 17.6 µM in assay [6]; 26.3 µM in assay [7]. Also, the TGI in assay [9] is 28.4 µM and 29.8 µM; in assay [10] it was 10.5 µM.

Turning to `Cc1cc2ncnn2cc1Nc1ncc2c(n1)n(C1CCOCC1)c(=O)n2C`, the GI50 is 2.83 µM in assay [1]; 5.3 µM in assay [2]; 14.1 µM in [3]; 3.21 µM in assay [4]; 3.42 µM in assay [5]; 2.83 µM in assay [6]. For the same molecule, the GI50 was 14 µM in assay [7], 6.09 µM in [8], 2.88 µM in [9] and 4.04 µM in assay [10]. Further, the TGI in assay [1] was 32.2 µM; in assay [2], > 100 µM; in assay [3], > 100 µM; in [4] it was > 100 µM; in assay [5] it was 52.9 µM; in assay [6] it was > 100 µM. For the same molecule, the TGI in [7] is 29.2 µM; in assay [8], 52 µM; in assay [9], 52.2 µM; in assay [10] it was > 100 µM.

As to `Cc1cc(C)c(NC(=O)c2sc3nc4c(cc3c2N)C(=O)CCC4)c(C)c1`, the GI50 is 7.29 µM in assay [1]; 7.26 µM in assay [2]; 3.49 µM in assay [3]; 2.09 µM in [4]; 3 µM in assay [5]; 9.04 µM in assay [6]. For the same molecule, the GI50 in assay [7] is 0.998 µM; in [8], 5.68 µM; in assay [9], 2.66 µM; in assay [10] it was 3.15 µM. Further, the TGI in [1] is > 35.4 µM; in assay [2], > 100 µM; in assay [3], > 100 µM; in assay [4], > 100 µM; in [5], > 55.3 µM; in [6], > 100 µM. Moreover, the TGI is 13.8 µM in assay [7], > 100 µM in assay [8], > 100 µM in assay [9] and > 100 µM in assay [10].

Turning to `COc1ccc(-c2[nH]c3ccc(OC)cc3c2/C=C(\C#N)S(=O)(=O)c2ccccc2)cc1`, the GI50 in [1] was 4.51 µM; in assay [2], 1.32 µM; in assay [3], 0.557 µM; in assay [4] it was 0.774 µM; in assay [5], 0.305 µM; in assay [6], 2.69 µM. The GI50 in assay [7] is 0.319 µM; in [8] it was 0.745 µM; in assay [9], 4.22 µM; in [10] it was 0.894 µM. The TGI was > 100 µM in assay [1]; > 30.7 µM in assay [2]; > 100 µM in assay [3]; > 100 µM in assay [4]; 2.6 µM in assay [5]; > 27.6 µM in assay [6]. Besides, the TGI in assay [7] was 2.39 µM; in assay [8] it was > 20.2 µM; in assay [9] it was > 100 µM; in [10], 6.19 µM.

Take `c1ccc(Sc2ccc(Cc3nc4cc5ccccc5cc4[nH]3)cc2)cc1`: the GI50 in assay [1] was 16.4 µM; in assay [2], 3.31 µM; in assay [3], 3.68 µM; in [4], 6.73 µM; in assay [5], 26 µM; in assay [6] it was 20.7 µM. In addition, the GI50 is 2.88 µM in assay [7], 8.18 µM in assay [8], 11.7 µM in assay [9] and 1.42 µM in [10]. Moreover, the TGI in assay [1] was > 84.9 µM; in [2], 29.9 µM; in assay [3], > 57.9 µM; in [4], > 100 µM; in assay [5] it was > 100 µM; in assay [6], > 100 µM. Also, the TGI in [7] was 18.4 µM; in assay [8], > 100 µM; in assay [9] it was 48.8 µM; in [10] it was > 59 µM.

For the molecule `COc1ccc(C[N+](C)(C)N)cc1OC`, the GI50 in [1], in assay [2], in [3], in assay [4], in assay [5] and in [7] was > 100 µM throughout. The GI50 in assay [8], in [9] and in assay [10] was > 100 µM each time. In addition, the TGI in assay [1], in assay [2], in assay [3], in assay [4], in assay [5] and in assay [6] was > 100 µM each time. Besides, the TGI in assay [7], in assay [8], in [9] and in [10] was > 100 µM in each case.

As for `CCNCCNc1cc(-c2ccc(C(F)(F)F)cc2)c(C#N)c2nc3ccccc3n12`, the GI50 in [1] was 1.59 µM; in [2], 1.16 µM; in assay [3] it was 0.466 µM; in [4], 0.642 µM; in [5], 0.343 µM; in [6], 1.36 µM. Besides, the GI50 in assay [7] is 1.67 µM; in [8], 1.31 µM; in [9], 1.11 µM; in assay [10] it was 0.266 µM. Moreover, the TGI in [1] is 3.16 µM; in assay [2], 2.52 µM; in assay [3] it was 1.61 µM; in [4], 2.18 µM; in [5] it was 1.19 µM; in assay [6], 2.77 µM. The TGI in [7] was 3.04 µM; in assay [8], 3.29 µM; in assay [9] it was 2.31 µM; in assay [10] it was 0.683 µM.

In the case of `COc1cc2ncnc(-n3ncc4cc(NC(=O)Nc5ccccc5)ccc43)c2cc1OC`, the GI50 in assay [1] is 1.55 µM; in [2], 1.39 µM; in assay [3], 1.27 µM; in assay [4], 0.234 µM; in assay [5] it was 2.03 µM; in assay [6] it was 0.499 µM. Also, the GI50 in assay [7] was 5.22 µM; in [8], 0.86 µM; in [9] it was 2.08 µM; in assay [10], 2.56 µM. Besides, the TGI in assay [1] worked out at 12 µM; in [2], 4.92 µM; in assay [3], 3.23 µM; in assay [4] it was 1.9 µM; in [5], 15.3 µM; in assay [6] it was 2.84 µM. In addition, the TGI in assay [7] was found to be 21.3 µM; in assay [8], 3.56 µM; in assay [9], 12.1 µM; in [10] it was 13.6 µM.
